Experimental data: ChEMBL document CHEMBL1124489, “Synthesis and thromboxane synthetase inhibitory activity of di- or tetrahydrobenzo[b]thiophenecarboxylic acid derivatives” (J Med Chem, 1989)

Experiments:
[1] = target: Thromboxane-A synthase (Oryctolagus cuniculus); assay: Inhibition of thromboxane A2 synthetase
[2] = target: T1, Thromboxane-A synthase (Rattus norvegicus) (UniProt P49430); assay: Inhibition of rat serum thromboxane A2 synthetase after 2 hr of oral administration of compound
T1 sequence (whole entry): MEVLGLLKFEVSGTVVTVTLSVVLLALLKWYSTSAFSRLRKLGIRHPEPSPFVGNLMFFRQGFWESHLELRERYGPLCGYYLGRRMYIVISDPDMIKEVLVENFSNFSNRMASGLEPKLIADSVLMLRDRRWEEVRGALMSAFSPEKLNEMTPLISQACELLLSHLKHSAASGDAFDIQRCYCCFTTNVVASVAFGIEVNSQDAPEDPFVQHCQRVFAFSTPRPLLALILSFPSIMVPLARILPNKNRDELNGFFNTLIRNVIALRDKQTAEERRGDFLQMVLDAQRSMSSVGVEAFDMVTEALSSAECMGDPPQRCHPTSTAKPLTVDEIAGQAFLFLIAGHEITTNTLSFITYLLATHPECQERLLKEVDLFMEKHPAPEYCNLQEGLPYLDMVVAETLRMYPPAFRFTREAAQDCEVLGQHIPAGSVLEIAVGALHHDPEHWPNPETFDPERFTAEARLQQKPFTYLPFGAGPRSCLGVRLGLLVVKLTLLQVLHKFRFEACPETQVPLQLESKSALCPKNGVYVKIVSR

Thromboxane-A synthase = target: T2, Thromboxane-A synthase (Homo sapiens, UniProt P24557); assay: Inhibition of platelet microsomal thromboxane A synthetase in humans
T2 sequence (P24557 whole entry): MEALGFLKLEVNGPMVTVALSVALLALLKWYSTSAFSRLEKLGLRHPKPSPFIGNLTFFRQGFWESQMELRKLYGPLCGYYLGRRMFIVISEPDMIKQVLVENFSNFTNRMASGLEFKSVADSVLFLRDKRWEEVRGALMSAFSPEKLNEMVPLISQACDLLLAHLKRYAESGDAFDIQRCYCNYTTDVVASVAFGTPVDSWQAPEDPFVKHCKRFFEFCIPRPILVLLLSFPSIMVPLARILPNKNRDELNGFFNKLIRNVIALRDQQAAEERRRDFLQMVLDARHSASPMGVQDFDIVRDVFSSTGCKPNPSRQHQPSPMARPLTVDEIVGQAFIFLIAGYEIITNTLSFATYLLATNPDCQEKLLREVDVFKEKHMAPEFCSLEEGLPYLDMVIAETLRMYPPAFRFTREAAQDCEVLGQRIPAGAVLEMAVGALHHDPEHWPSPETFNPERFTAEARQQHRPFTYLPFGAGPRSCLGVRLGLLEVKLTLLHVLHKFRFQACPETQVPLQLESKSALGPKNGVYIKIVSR

Oryctolagus cuniculus = assay: Protection against sodium arachidonate induced sudden death in rabbit, 1 hr after peroral administration; type: functional; settings: po
[3] = target: T1, Thromboxane-A synthase (Rattus norvegicus); settings: Serum

Compound | IC50 [1] [nM] | ID50 [2] [µmol/kg] | IC50 (Thromboxane-A synthase) [nM] | ED50 (Oryctolagus cuniculus) [µmol/kg] | ID50 [3] [µmol/kg]
O=C(O)C1CCc2cc(Cn3ccnc3)sc2C1 (centres undefined) | 26 | 0.027 | 20 | 0.9 | –
O=C(O)c1ccc(OCCn2ccnc2)cc1 [DAZOXIBEN] | – | – | – | 3.17 | 0.468
O=C(O)C1=Cc2sc(Cn3ccnc3)cc2CC1 [IMITRODAST] | – | 0.064 | 6 | 0.43 | –
